Results: patent US9156801B2, “2-substituted oleanolic acid derivative, method preparing for same, and application thereof” (HANGZHOU BENSHENG PHARMACEUTICAL CO., LTD., priority 2011, dated 2015)
In brackets after ≈: the same amount, converted by molar mass.

Key:
H9 cell line = assay: leukemia cell growth inhibition, MTT; type: cell-based; settings: Homo sapiens; for IC50: H9, 72 h; for inhibition at 16 µg/mL: H9, 16 μg/mL compound, 72 h, read-out: IR (cell proliferation inhibition rate)
Source text: (§1) Leukemia cell lines: leukemia cell lines: K562/adr (drug-resistant, chronic myeloid leukemia, CML), NB4 (acute promyelocytic leukemia, AML), Kasumi-1 (acute myeloid leukemia M2 type, AML-M2), Jurkat (acute lymphoblastic leukemia, ALL), all of which are donated by Cancer Research Institute of Zhejiang University, China; and H9 (acute lymphoblastic leukemia, ALL), which is purchased from China Center for Type Culture Collection (CCTCC).
(§2) Obtaining 6000 well-growing leukemia cells and inoculating them into wells of a 96-well cell culture plate. The culture medium is the 1640 cell culture medium containing 10% fetal bovine serum. After adding the 2-substituted oleanolic acid derivatives of different concentrations and mixing uniformly, placing the plate in a carbon dioxide cell incubator (5% CO2) at 37° C. and incubated for 72 hours. Then the relative number of viable cells is determined by MTT method. In this experiment, cell proliferation inhibition rate in control group (not treated with any compound) is set as 0%.

Jurkat cell line = assay: leukemia cell growth inhibition, MTT; type: cell-based; settings: Homo sapiens, 72 h; for inhibition at 16 µg/mL: 16 μg/mL compound, read-out: IR (cell proliferation inhibition rate)
Source text: as §1, §2

K562/adr cell line = assay: leukemia cell growth inhibition, MTT; type: cell-based; settings: Homo sapiens, 72 h; for IC50: K562/Adr; for inhibition at 16 µg/mL: K562/adr, 16 μg/mL compound, read-out: IR (cell proliferation inhibition rate)
Source text: as §1, §2

Kasumi-1 cell line = assay: leukemia cell growth inhibition, MTT; type: cell-based; settings: Homo sapiens; for inhibition at 16 µg/mL: Kasumi-1, 16 μg/mL compound, 72 h, read-out: IR (cell proliferation inhibition rate); for IC50: Kasumi-1, 72 h
Source text: as §1, §2

NB4 cell line = assay: leukemia cell growth inhibition, MTT; type: cell-based; settings: Homo sapiens, NB-4; for inhibition at 16 µg/mL: NB4, 16 μg/mL compound, 72 h, read-out: IR (cell proliferation inhibition rate); for IC50: NB4, 72 h
Source text: as §1, §2

RPMI8226 cell line = assay: multiple myeloma cell growth inhibition, MTT; type: cell-based; settings: Homo sapiens, RPMI-8226; for inhibition at 16 µg/mL: RPMI8226, 16 μg/mL compound, 72 h, read-out: IR (cell proliferation inhibition rate); for IC50: RPMI8226, 72 h
Description: Multiple myeloma cell lines: RPMI8226 (multiple myeloma), purchased from Fuxiang Bio-tech Co. Ltd., Shanghai, China.
Obtaining 6000 well-growing cells as above and inoculating them into wells of a 96-well cell culture plate. The culture medium is the 1640 cell culture medium containing 10% fetal bovine serum. After adding the 2-substituted oleanolic acid derivatives of different concentrations and mixing uniformly, placing the plate in a carbon dioxide cell incubator (5% CO2) at 37° C. and incubated for 72 hours. Then the relative number of viable cells is determined by MTT method. In this experiment, cell proliferation inhibition rate in control group (not treated with any compound) is set as 0%.

Hep G2 cell line = assay: solid tumor cell growth inhibition, MTT; type: cell-based, human; settings: Homo sapiens; for inhibition at 16 µg/mL: HepG2, 72 h, Hep G2, 16 μg/mL compound, 72 h, read-out: IR (cell proliferation inhibition rate); for IC50: HepG2, Hep G2, 72 h
Description: (§3) Hep-2 (laryngeal carcinoma), A549 (human lung cancer), CaES-17 (esophageal cancer cell), PC-3 (prostate cancer), CNE (nasopharyngeal carcinoma cell), and SK-OV-3 (ovarian cancer cell), all of which are purchased from China Center For Type Culture Collection; RKO (human colon adenocarcinoma cell), MGC 803 (human gastric cancer cell), MG63 (osteosarcoma) and U87 MG (malignant glioma cell), all of which are purchased from Fuxiang Bio-tech Co. Ltd., Shanghai, China; PANC-1 (pancreatic cancer), Hep G2 (human liver cancer cell), Becap37 (human breast cancer cell), and Hela (human cervical cancer cell), all of which are donated by Cancer Research Institute of Zhejiang University, China.
(§4) Obtaining 4000 well-growing human solid tumor cells and inoculating them into wells of a 96-well cell culture plate. The culture medium is DMEM High Glucose cell culture medium containing 10% fetal bovine serum. The plate is placed in a carbon dioxide cell incubator (5% CO2) at 37° C. for 24 hours. After adding the 2-substituted oleanolic acid derivatives of different concentrations and mixing uniformly, the plate is placed in a carbon dioxide cell incubator (5% CO2) at 37° C. and incubated for 72 hours. Then the relative number of the living cells is determined by MTT method. In this experiment, the cell proliferation inhibition rate in control group (not treated with any compound) is set as 0%.

A549 cell line = assay: solid tumor cell growth inhibition, MTT; type: cell-based; settings: Homo sapiens; for IC50: A549, 72 h; for inhibition at 16 µg/mL: A549, 16 μg/mL compound, 72 h, read-out: IR (cell proliferation inhibition rate)
Description: as §3, §4

Becap37 cell line = assay: solid tumor cell growth inhibition, MTT; type: cell-based; settings: Homo sapiens; for inhibition at 16 µg/mL: Becap37, 16 μg/mL compound, 72 h, read-out: IR (cell proliferation inhibition rate); for IC50: Becap37, 72 h
Description: as §3, §4

CNE cell line = assay: solid tumor cell growth inhibition, MTT; type: cell-based; settings: Homo sapiens, 72 h; for inhibition at 16 µg/mL: 16 μg/mL compound, read-out: IR (cell proliferation inhibition rate)
Description: as §3, §4

CaES-17 cell line = assay: solid tumor cell growth inhibition, MTT; type: cell-based; settings: Homo sapiens, CaEs17; for inhibition at 16 µg/mL: CaES-17, 16 μg/mL compound, 72 h, read-out: IR (cell proliferation inhibition rate); for IC50: CaES-17, 72 h
Description: as §3, §4

Hela cell line = assay: solid tumor cell growth inhibition, MTT; type: cell-based; settings: Homo sapiens, 72 h; for IC50: HeLa; for inhibition at 16 µg/mL: Hela, 16 μg/mL compound, read-out: IR (cell proliferation inhibition rate)
Description: as §3, §4

Hep-2 cell line = assay: solid tumor cell growth inhibition, MTT; type: cell-based; settings: Homo sapiens; for IC50: HEp-2, 72 h; for inhibition at 16 µg/mL: Hep-2, 16 μg/mL compound, 72 h, read-out: IR (cell proliferation inhibition rate)
Description: as §3, §4

MG-63 cell line = assay: solid tumor cell growth inhibition, MTT; type: cell-based; settings: Homo sapiens; for IC50: MG-63, 72 h; for inhibition at 16 µg/mL: MG-63, 16 μg/mL compound, 72 h, read-out: IR (cell proliferation inhibition rate)
Description: as §3, §4

MGC 803 cell line = assay: solid tumor cell growth inhibition, MTT; type: cell-based; settings: Homo sapiens; for inhibition at 16 µg/mL: MGC 803, 16 μg/mL compound, 72 h, read-out: IR (cell proliferation inhibition rate); for IC50: MGC 803, 72 h
Description: as §3, §4

PANC-1 cell line = assay: solid tumor cell growth inhibition, MTT; type: cell-based; settings: Homo sapiens; for IC50: PANC-1, 72 h; for inhibition at 16 µg/mL: PANC-1, 16 μg/mL compound, 72 h, read-out: IR (cell proliferation inhibition rate)
Description: as §3, §4

PC-3 cell line = assay: solid tumor cell growth inhibition, MTT; type: cell-based; settings: Homo sapiens; for IC50: PC-3, 72 h; for inhibition at 16 µg/mL: PC-3, 16 μg/mL compound, 72 h, read-out: IR (cell proliferation inhibition rate)
Description: as §3, §4

RKO cell line = assay: solid tumor cell growth inhibition, MTT; type: cell-based; settings: Homo sapiens, 72 h; for inhibition at 16 µg/mL: 16 μg/mL compound, read-out: IR (cell proliferation inhibition rate)
Description: as §3, §4

SK-OV-3 cell line = assay: solid tumor cell growth inhibition, MTT; type: cell-based; settings: Homo sapiens; for IC50: SK-OV-3, 72 h; for inhibition at 16 µg/mL: SK-OV-3, 16 μg/mL compound, 72 h, read-out: IR (cell proliferation inhibition rate)
Description: as §3, §4

U87 MG cell line = assay: solid tumor cell growth inhibition, MTT; type: cell-based; settings: Homo sapiens, U-87 MG, 72 h; for inhibition at 16 µg/mL: 16 μg/mL compound, read-out: IR (cell proliferation inhibition rate)
Description: as §3, §4

SMILES	IC50 (H9 cell line) [µg/mL]	inhibition at 16 µg/mL (H9 cell line) [%]	inhibition at 16 µg/mL (Jurkat cell line) [%]	IC50 (Jurkat cell line) [µg/mL]	IC50 (K562/adr cell line) [µg/mL]	inhibition at 16 µg/mL (K562/adr cell line) [%]	inhibition at 16 µg/mL (Kasumi-1 cell line) [%]	IC50 (Kasumi-1 cell line) [µg/mL]	inhibition at 16 µg/mL (NB4 cell line) [%]	IC50 (NB4 cell line) [µg/mL]	inhibition at 16 µg/mL (RPMI8226 cell line) [%]	IC50 (RPMI8226 cell line) [µg/mL]	inhibition at 16 µg/mL (Hep G2 cell line) [%]	IC50 (Hep G2 cell line) [µg/mL]	IC50 (A549 cell line) [µg/mL]	inhibition at 16 µg/mL (A549 cell line) [%]	inhibition at 16 µg/mL (Becap37 cell line) [%]	IC50 (Becap37 cell line) [µg/mL]	inhibition at 16 µg/mL (CNE cell line) [%]	IC50 (CNE cell line) [µg/mL]	also measured
COC(=O)[C@]12CCC(C)(C)CC1C1=CCC3[C@@]4(C)CC(C(=O)NCCCN(C)C)C(=O)C(C)(C)C4CC[C@@]3(C)[C@]1(C)CC2 (some centres unmarked) [BS-OA-042]	3.12 (≈ 5.23 µM)	95.9	99	2.43 (≈ 4.07 µM)	0.64 (≈ 1.07 µM)	98.4	99.1	4.1 (≈ 6.87 µM)	100	2.63 (≈ 4.41 µM)	98.9	0.68 (≈ 1.14 µM)	> 96	2.36 (≈ 3.95 µM)	2.06 (≈ 3.45 µM)	96.9	98.7	4.32 (≈ 7.24 µM)	99.5	3.89 (≈ 6.52 µM)	inhibition at 16 µg/mL (CaES-17 cell line): 98.1%; IC50 (CaES-17 cell line): 2.97 µg/mL (≈ 4.98 µM); IC50 (Hela cell line): 3.47 µg/mL (≈ 5.81 µM); inhibition at 16 µg/mL (Hela cell line): 98.9%; IC50 (Hep-2 cell line): 5.99 µg/mL (≈ 10 µM); inhibition at 16 µg/mL (Hep-2 cell line): 95.2%; IC50 (MG-63 cell line): 2.72 µg/mL (≈ 4.56 µM); inhibition at 16 µg/mL (MG-63 cell line): 98.2%; inhibition at 16 µg/mL (MGC 803 cell line): 99.2%; IC50 (MGC 803 cell line): 2.84 µg/mL (≈ 4.76 µM); IC50 (PANC-1 cell line): 5.02 µg/mL (≈ 8.41 µM); inhibition at 16 µg/mL (PANC-1 cell line): 99.4%; IC50 (PC-3 cell line): 4.78 µg/mL (≈ 8.01 µM); inhibition at 16 µg/mL (PC-3 cell line): 100%; inhibition at 16 µg/mL (RKO cell line): 100%; IC50 (RKO cell line): 3.29 µg/mL (≈ 5.51 µM); IC50 (SK-OV-3 cell line): 3.63 µg/mL (≈ 6.08 µM); inhibition at 16 µg/mL (SK-OV-3 cell line): 97.9%; inhibition at 16 µg/mL (U87 MG cell line): 98.6%; IC50 (U87 MG cell line): 2.54 µg/mL (≈ 4.26 µM)
CCOCCNC(=O)C1C[C@@]2(C)C(CC[C@]3(C)C2CC=C2C4CC(C)(C)CC[C@]4(C(=O)OC)CC[C@]23C)C(C)(C)C1=O (some centres unmarked) [BS-OA-053]	15.5 (≈ 26.6 µM)	54.6	13	> 16	10.8 (≈ 18.4 µM)	60.9	23.2	> 16	71.3	10.7 (≈ 18.3 µM)	29.5	> 16	6.8	> 16	> 16	2	-10.2	> 16	9.9	> 16	inhibition at 16 µg/mL (CaES-17 cell line): -13.1%; IC50 (CaES-17 cell line): > 16 µg/mL; IC50 (Hela cell line): > 16 µg/mL; inhibition at 16 µg/mL (Hela cell line): 27.5%; IC50 (Hep-2 cell line): > 16 µg/mL; inhibition at 16 µg/mL (Hep-2 cell line): -10%; IC50 (MG-63 cell line): > 16 µg/mL; inhibition at 16 µg/mL (MG-63 cell line): -32.5%; inhibition at 16 µg/mL (MGC 803 cell line): 7.8%; IC50 (MGC 803 cell line): > 16 µg/mL; IC50 (PANC-1 cell line): > 16 µg/mL; inhibition at 16 µg/mL (PANC-1 cell line): -3.3%; IC50 (PC-3 cell line): > 16 µg/mL; inhibition at 16 µg/mL (PC-3 cell line): 38.8%; inhibition at 16 µg/mL (RKO cell line): -55.6%; IC50 (RKO cell line): > 16 µg/mL; IC50 (SK-OV-3 cell line): > 16 µg/mL; inhibition at 16 µg/mL (SK-OV-3 cell line): 22.7%; inhibition at 16 µg/mL (U87 MG cell line): 20.1%; IC50 (U87 MG cell line): > 16 µg/mL
